From patent US9149547B2, “Process for production of heterodimers of glutamic acid” (Molecular Insight Pharmaceuticals, Inc., priority 2009, dated 2015)

Columns and labels:
[1] = Stability at room temperature, free I-123 content quantitated by HPLC; type: physicochemical
Method: Stability Results: Stability was evaluated for up to 2 days at room temperature by quantitation of free 1-123 content present by HPLC. The stability was determined at room temperature in an attempt to accelerate any product degradation to more rapidly assess the effectiveness of each radioprotectants in the formulation matrix.

[2] = Stability profile of final formulation at room temperature (FIG. 4); type: physicochemical; conditions: 6% sodium ascorbate/ascorbic acid with 2.3% sodium gentisate in sterile water for injection, compared to formulation of PBS (pH=9.0)
Method: In a 5 mL vial containing [^123I]NaI was added sterile water for injection (SWFI) (50 μL), 50% sulfuric acid in SWFI (50 μL), oxidant (100 μL) (which was prepared fresh via the incubation of acetic acid (0.2 mL) and 30% hydrogen peroxide (0.335 mL) followed by dilution to a final volume of 5 mL with SWFI), acetonitrile (0.5 mL), and the trimethylstannane precursor, Sn-MIP-1095 (compound 9) (100 μL of a 1 mg/mL solution in acetonitrile). The mixture was vortexed for 1 min and allowed to incubate at room temperature for an additional 10 minutes. The reaction was quenched with 200 μL of 0.1 M sodium thiosulfate. The product was then diluted in 18 mL of SWFI and loaded onto a C18 Sep Pak Plus column. The column was washed with 60 mL SWFI to remove unreacted radioiodine and inorganic and organic salts. The Sn-MIP-1095 precursor and ^123I-MIP-1095 ester are retained on the column. ^123I-MIP-1095 ester was eluted from the column using 4 mL of ethanol, while the Sn-MIP-1095 precursor was retained on the column. The resulting solution, containing the ^123I-MIP-1095 ester, was evaporated to dryness under a stream of nitrogen and the residue was dissolved in methylene chloride (0.5 mL) and TFA (2 mL) was added to remove the ester protecting groups. The deprotection solution was incubated at room temperature for 45 minutes. […]

Row | stability of formulation ([1]; 6% ascorbate/3% gentisate formulation, 250 mCi scale-up runs) | increase in free iodine ([1]; stored at room temperature, evaluated for up to 2 days, free I-123 by HPLC) | stability profile of final formulation [2] | Compound
1 | good stability | 3-5 % per day |  | O=C(O)CC[C@H](NC(=O)N[C@@H](CCCCNCc1ccc(I)cc1)C(=O)O)C(=O)O [^123I-MIP-1072, ^123I—(S)-2-(3-((S)-1-carboxy-5-(4-iodobenzylamino)pentyl)ureido)pentanedioic Acid]
2 |  |  | stable profile | O=C(O)CC[C@H](NC(=O)N[C@@H](CCCCNC(=O)Nc1ccc(I)cc1)C(=O)O)C(=O)O [^123I-MIP-1095, ^123I—(S)-2-(3-((S)-1-Carboxy-5-(3-(4-iodophenyl)ureido)pentyl)ureido)pentanedioic Acid]
